Laboratory results reported in ChEMBL document CHEMBL4411335, “Identification and Optimization of Novel Small c-Abl Kinase Activators Using Fragment and HTS Methodologies” (J Med Chem, 2019).
In brackets after ≈: the same amount, converted by molar mass.

Tests used:
[1] = target: T1, Tyrosine-protein kinase ABL1 (Homo sapiens, UniProt P00519); assay: Activation of full length human 6His-tagged c-Abl expressed in baculovirus expression system using abltide as substrate after 2 hrs by IMAP assay; settings: read-out: pIC50 (converted)
[2] = target: Tyrosine-protein kinase ABL1 (Homo sapiens, UniProt P00519, D382N); assay: Displacement of Myr-GQQPGKVLGDQRRPSL(K-TAMRA)G-amide from N-terminal-truncated human c-ABL D382N mutant (46 to 534 residues) after 30 mins by fluorescence polarization binding assay
[3] = target: T1, Tyrosine-protein kinase ABL1; assay: Induction of human c-ABL phosphorylation at Y245/Y412 residues in bacmam-induced HEK-MSR2 cell lysates by in-cell Western blot analysis; type: subcellular, Lysate
[4] = Kinetic solubility of the compound at pH 7.4 after 1 hr by CLND-based assay; type: physicochemical; settings: buffer, read-out: Kinetic_solubility
[5] = Permeability of the compound at […] after 3 hrs by artificial membrane permeability assay; type: ADME; settings: PAMPA; read-out: permeability
[6] = Intrinsic clearance in CD1 mouse liver microsomes at 0.5 uM measured up 60 mins in presence of NADPH by LC-MS/MS analysis; type: ADME, Microsome; settings: 1 h
[7] = Terminal plasma concentration in CD1 mouse at 100 mg/kg, ip after 40 mins; type: ADME, organism-based; settings: read-out: Cp(T)
[8] = Terminal plasma concentration in CD1 mouse at 100 mg/kg, ip after 180 mins; type: ADME, organism-based; settings: read-out: Cp(T)
[9] = system: Mus musculus; assay: In vivo activation of c-ABL in CD1 mouse assessed as fold increase in phosphorylated CRKL level at 100 mg/kg, ip after 40 mins relative to total CRK-L protein level; type: functional
[10] = system: Mus musculus; assay: In vivo activation of c-ABL in CD1 mouse assessed as fold increase in phosphorylated CRKL level at 100 mg/kg, ip after 180 mins relative to total CRK-L protein level; type: functional
[11] = Toxicity in CD1 mouse assessed as induction of hemolysis at 100 mg/kg, BID for 10 days; type: organism-based; settings: in vivo, 240 h

T1 sequence (P00519 whole entry, the tested form may be a part): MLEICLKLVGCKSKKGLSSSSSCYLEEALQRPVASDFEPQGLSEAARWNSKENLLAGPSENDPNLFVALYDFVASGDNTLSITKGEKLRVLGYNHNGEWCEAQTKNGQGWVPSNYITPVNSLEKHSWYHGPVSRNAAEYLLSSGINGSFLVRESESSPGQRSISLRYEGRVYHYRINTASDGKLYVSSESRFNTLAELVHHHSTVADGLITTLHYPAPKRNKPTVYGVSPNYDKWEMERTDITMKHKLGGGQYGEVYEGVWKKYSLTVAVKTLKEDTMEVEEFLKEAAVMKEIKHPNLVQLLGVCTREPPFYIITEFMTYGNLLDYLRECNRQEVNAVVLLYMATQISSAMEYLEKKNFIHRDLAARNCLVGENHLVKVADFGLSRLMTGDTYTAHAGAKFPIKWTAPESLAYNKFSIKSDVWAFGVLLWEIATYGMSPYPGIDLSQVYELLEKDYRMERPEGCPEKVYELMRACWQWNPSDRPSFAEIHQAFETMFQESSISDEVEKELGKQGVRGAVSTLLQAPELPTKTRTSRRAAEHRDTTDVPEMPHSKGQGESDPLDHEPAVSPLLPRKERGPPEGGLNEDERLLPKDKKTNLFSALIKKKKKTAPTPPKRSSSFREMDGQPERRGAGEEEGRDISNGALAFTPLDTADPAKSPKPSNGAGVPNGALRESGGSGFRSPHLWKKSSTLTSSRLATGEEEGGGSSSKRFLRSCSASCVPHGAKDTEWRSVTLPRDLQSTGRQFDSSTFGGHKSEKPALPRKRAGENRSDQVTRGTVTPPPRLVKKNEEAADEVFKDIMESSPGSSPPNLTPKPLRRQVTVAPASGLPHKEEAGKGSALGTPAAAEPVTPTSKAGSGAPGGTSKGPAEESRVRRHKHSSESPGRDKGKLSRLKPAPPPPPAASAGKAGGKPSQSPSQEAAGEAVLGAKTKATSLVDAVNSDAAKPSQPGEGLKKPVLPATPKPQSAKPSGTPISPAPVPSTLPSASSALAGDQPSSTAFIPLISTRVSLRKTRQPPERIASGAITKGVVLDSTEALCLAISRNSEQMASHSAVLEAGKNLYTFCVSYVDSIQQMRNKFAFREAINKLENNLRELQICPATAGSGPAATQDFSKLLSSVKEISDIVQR
Sequence of Tyrosine-protein kinase ABL1 (Homo sapiens, UniProt P00519, D382N) (P00519 as listed by the source D382N): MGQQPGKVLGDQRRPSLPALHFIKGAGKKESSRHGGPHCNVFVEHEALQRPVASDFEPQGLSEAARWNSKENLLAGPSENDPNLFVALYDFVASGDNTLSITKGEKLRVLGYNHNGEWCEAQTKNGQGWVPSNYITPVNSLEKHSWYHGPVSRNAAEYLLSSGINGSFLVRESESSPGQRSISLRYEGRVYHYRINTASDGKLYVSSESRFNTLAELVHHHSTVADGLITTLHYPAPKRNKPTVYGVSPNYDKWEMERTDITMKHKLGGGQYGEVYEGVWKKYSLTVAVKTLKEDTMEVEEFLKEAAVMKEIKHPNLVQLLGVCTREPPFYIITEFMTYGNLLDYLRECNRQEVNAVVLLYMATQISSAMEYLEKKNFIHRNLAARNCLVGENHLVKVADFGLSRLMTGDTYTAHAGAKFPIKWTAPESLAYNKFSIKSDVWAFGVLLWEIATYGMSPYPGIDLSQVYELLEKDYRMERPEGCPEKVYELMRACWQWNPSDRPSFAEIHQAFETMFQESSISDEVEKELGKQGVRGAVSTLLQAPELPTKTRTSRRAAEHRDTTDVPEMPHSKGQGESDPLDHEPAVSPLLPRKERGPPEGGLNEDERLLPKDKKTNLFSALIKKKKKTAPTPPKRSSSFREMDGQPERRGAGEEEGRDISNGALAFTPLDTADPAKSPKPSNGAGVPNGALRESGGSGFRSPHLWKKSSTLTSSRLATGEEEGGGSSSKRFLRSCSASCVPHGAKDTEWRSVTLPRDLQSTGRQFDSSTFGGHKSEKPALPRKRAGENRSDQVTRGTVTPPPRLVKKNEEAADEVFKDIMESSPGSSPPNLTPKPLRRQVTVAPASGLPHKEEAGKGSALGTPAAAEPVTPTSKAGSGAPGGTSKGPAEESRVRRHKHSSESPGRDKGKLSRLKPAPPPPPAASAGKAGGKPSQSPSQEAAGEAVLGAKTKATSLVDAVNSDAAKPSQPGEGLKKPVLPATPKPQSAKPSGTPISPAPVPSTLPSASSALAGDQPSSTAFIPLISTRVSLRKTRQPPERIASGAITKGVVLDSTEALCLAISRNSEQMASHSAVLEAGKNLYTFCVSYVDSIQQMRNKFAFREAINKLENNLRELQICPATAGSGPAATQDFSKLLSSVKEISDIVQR

SMILES | EC50 for c-Abl activation [1] | IC50 [2] | EC50 [3] | solubility kinetic at 1 h [4] | Papp at 3 h [5] | CLint [6] | concentration at 40 min [7] | concentration at 3 h [8] | fold change (FC) [9] | fold change (FC) [10] | Activity [11]
N#CCCC(=O)NC1=NN(c2ccc(Cl)c(Cl)c2)CC1 | 251 nM | 316 nM | 794 nM | 39 µM (≈ 12.1 µg/mL) | 35.5 ×10⁻⁶ cm/s | < 10 µL/min/mg | 15600 ng/mL | 17600 ng/mL | 19 | 35 | Toxic
O=C(NC1=NN(c2ccc(Cl)c(Cl)c2)CC1CCO)c1ccncc1 (racemic) | 100 nM | 158 nM | 3160 nM | 167 µM (≈ 63.3 µg/mL) | 33.5 ×10⁻⁶ cm/s |  |  |  |  |  | 
